Common to all, as to type: biochemical
One assay deals with JAK2 (Homo sapiens (Human), UniProt O60674). The assay can be described thus: Enzyme assay (Assay Example^a 1), JAK2.
Another assay deals with JAK1 (Homo sapiens (Human), UniProt P23458). Nature of the assay: Enzyme assay (Assay Example^a 1), JAK1. The following applies: ATP 100 μM.
For another assay, the target named is Tyk2 (Homo sapiens (Human), UniProt P29597). The assay can be described thus: Enzyme assay (Assay Example^a 1), Tyk2. The settings on record: ATP 100 μM.
Sequence of Tyk2 (P29597 whole entry): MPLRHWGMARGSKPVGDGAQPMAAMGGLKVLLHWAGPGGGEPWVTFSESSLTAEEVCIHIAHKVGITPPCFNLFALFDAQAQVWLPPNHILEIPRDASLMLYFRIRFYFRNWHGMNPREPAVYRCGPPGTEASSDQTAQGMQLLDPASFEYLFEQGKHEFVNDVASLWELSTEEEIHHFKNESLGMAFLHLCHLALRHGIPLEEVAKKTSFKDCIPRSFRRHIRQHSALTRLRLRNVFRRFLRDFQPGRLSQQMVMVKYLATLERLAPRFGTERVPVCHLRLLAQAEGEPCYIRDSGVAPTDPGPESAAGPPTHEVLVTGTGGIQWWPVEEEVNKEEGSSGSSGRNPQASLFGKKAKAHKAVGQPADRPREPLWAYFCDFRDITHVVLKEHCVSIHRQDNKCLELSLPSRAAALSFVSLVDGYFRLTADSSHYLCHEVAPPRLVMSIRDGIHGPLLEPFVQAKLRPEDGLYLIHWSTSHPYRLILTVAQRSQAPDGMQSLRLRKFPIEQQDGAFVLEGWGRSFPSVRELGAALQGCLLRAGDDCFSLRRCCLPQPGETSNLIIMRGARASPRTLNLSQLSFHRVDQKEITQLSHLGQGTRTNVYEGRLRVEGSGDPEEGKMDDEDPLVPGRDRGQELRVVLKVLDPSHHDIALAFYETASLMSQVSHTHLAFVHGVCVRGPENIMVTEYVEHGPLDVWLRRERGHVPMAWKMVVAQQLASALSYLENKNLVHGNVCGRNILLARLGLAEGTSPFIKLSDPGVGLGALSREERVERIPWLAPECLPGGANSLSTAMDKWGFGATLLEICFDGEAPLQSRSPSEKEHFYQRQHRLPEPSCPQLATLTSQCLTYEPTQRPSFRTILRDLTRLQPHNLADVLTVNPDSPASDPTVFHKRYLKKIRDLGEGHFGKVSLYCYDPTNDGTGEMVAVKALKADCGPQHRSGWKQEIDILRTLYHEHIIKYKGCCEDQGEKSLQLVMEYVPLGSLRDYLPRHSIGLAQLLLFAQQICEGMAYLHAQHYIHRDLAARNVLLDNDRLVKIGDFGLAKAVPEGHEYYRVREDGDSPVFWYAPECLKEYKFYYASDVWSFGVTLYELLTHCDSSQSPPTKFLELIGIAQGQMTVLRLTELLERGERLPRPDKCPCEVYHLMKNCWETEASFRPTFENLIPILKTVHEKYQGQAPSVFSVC
The target in the next assay is JAK3 (Homo sapiens (Human), UniProt P52333). The assay can be described thus: Enzyme assay (Assay Example^a 1), JAK3. The following applies: ATP 100 μM.
Sequence of JAK3 (P52333 whole entry): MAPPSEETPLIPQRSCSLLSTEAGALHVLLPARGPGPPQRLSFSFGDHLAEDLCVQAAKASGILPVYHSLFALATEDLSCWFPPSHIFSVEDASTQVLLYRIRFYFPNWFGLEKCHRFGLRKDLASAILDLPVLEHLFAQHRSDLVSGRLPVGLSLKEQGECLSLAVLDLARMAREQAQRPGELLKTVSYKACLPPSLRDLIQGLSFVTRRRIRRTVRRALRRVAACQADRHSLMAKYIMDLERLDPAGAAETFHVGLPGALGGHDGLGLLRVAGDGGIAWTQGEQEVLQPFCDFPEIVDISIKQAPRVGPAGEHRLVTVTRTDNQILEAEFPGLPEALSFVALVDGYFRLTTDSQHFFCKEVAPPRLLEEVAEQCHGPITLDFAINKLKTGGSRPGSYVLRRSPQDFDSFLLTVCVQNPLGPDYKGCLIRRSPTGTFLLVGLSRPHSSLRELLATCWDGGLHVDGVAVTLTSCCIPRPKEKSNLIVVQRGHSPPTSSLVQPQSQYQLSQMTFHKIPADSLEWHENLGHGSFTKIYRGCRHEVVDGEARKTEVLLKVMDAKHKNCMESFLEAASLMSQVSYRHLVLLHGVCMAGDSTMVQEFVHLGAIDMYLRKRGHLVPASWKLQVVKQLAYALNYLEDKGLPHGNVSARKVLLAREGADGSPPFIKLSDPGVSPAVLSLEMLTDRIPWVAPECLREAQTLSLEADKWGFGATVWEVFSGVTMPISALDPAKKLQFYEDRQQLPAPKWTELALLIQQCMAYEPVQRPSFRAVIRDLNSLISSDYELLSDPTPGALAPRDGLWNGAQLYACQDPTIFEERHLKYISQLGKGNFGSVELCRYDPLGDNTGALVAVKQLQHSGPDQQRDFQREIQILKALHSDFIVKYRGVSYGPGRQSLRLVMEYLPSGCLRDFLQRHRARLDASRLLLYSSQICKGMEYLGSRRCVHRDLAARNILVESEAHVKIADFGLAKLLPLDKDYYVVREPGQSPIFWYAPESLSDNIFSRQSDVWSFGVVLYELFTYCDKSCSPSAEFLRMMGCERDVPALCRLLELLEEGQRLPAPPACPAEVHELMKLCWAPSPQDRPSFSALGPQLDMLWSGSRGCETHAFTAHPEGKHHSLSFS

Where two headings read alike, the source gives them in different places.

Usually IC50 stands for the midpoint of a concentration-inhibition curve.

On to `OC(CN[C@H]1CC[C@@H](c2nnn3cnc4[nH]ccc4c23)CC1)(c1ccccc1)C(F)(F)F` (mixture of isomers) [196a, 3-{[cis-4-(7H-pyrrolo[3,2-e][1,2,3]triazolo[1,5-c]pyrimidin-1-yl)cyclohexyl]amino}-1,1,1-trifluoro-2-phenylpropan-2-ol], for which the IC50 against JAK2 (ATP 100 μM, Table^a 154) turned out to be 0.75 µM; on JAK1 (Table^a 154), 0.06 µM.
In the case of `OC(CN[C@H]1CC[C@H](c2nnn3cnc4[nH]ccc4c23)CC1)(c1ccccc1)C(F)(F)F` (mixture of isomers) [196b, 3-{[trans-4-(7H-pyrrolo[3,2-e][1,2,3]triazolo[1,5-c]pyrimidin-1-yl)cyclohexyl]amino}-1,1,1-trifluoro-2-phenylpropan-2-ol], the concentration for half-maximal inhibition (IC50) against JAK2 (ATP 100 μM, Table^a 154) is 0.036 µM; on JAK1 (Table^a 154) it was 0.0032 µM.
Consider `OC(CN[C@H]1CC[C@H](c2nnn3cnc4[nH]ccc4c23)CC1)(c1ccc(Cl)cc1)C(F)(F)F` (mixture of isomers) [199b, 3-((trans-4-(7H-pyrrolo[3,2-e][1,2,3]triazolo[1,5-c]pyrimidin-1-yl)cyclohexyl)amino)-2-(4-chlorophenyl)-1,1,1-trifluoropropan-2-ol], for which the IC50 against JAK2 (ATP 100 μM, Table^a 154) was 0.035 µM; against JAK1 (Table^a 154), 0.0035 µM; at Tyk2 (Table^a 154) it was 0.44 µM.
On to `OC(CN[C@H]1CC[C@H](c2nnn3cnc4[nH]ccc4c23)CC1)(c1ccc(F)cc1)C(F)(F)F` (mixture of isomers) [200b, 3-{[trans-4-(7H-pyrrolo[3,2-e][1,2,3]triazolo[1,5-c]pyrimidin-1-yl)cyclohexyl]amino}-1,1,1-trifluoro-2-(4-fluorophenyl)propan-2-ol], for which the IC50 against JAK2 (ATP 100 μM, Table^a 154) worked out at 0.032 µM; at JAK1 (Table^a 154) it was 0.0025 µM; against Tyk2 (Table^a 154), 0.24 µM.
For the molecule `O=C(OCc1ccccc1)N1CCCC(c2nnn3cnc4[nH]ccc4c23)C1` (racemic) [compound 14], the concentration for half-maximal inhibition (IC50) against JAK2 (ATP 100 μM, Table^a 154) came out at 0.11 µM; against JAK1 (Table^a 154) it was 0.021 µM; on Tyk2 (Table^a 154), 2.2 µM.
As for `c1cc2c(ncn3nnc(C4CCCNC4)c23)[nH]1` (racemic) [compound 15], the IC50 at JAK2 (ATP 100 μM, Table^a 154) was 2.5 µM; at Tyk2 (Table^a 154), more than 1 µM.
Consider `OC(CN1CCC(c2nnn3cnc4[nH]ccc4c23)CC1)c1ccc(C(F)(F)F)cc1` (racemic) [compound 212, 2-[4-(7H-Pyrrolo[3,2-e][1,2,3]triazolo[1,5-c]pyrimidin-1-yl)piperidin-1-yl]-1-[4-(trifluoromethyl)phenyl]ethanol], for which the half-inhibitory concentration (IC50) is 0.047 µM on JAK2 (ATP 100 μM, Table^a 154) and 0.45 µM against Tyk2 (Table^a 154).
Consider `c1cc2c(ncn3cnc(C4CCCCC4)c23)[nH]1` [compound 2], for which the half-inhibitory concentration (IC50) against JAK2 (ATP 100 μM) amounted to 0.017 µM; at JAK1, 0.014 µM.
Regarding `CC1CCN(C(=O)OC(C)(C)C)CC1c1nnn2cnc3[nH]ccc3c12` (centres unmarked) [compound 11], on JAK2 (ATP 100 μM, Table^a 154), half-maximal inhibition (IC50) was put at 0.34 µM.
`CC(C)(C)OC(=O)N1CCC(c2nnn3cnc4[nH]ccc4c23)CC1` [compound 24] displayed an IC50 on JAK2 of 0.51 µM. In other words, the sub-micromolar range.
Turning to `c1cc2c(ncn3nnc(C4CCNCC4)c23)[nH]1` [compound 27], on JAK2, the concentration for half-maximal inhibition (IC50) is more than 1 µM.
With `FC(F)(F)c1ccc(CN2CCC(c3nnn4cnc5[nH]ccc5c34)CC2)cc1` [compound 33], the IC50 at JAK2 amounted to 0.019 µM.
For the molecule `Cc1cc(OC(F)(F)F)ccc1NC[C@H]1CC[C@H](c2nnn3cnc4[nH]ccc4c23)CC1` [compound 104], the IC50 at JAK2 (ATP 100 μM, Table^a 154) was more than 1 µM; at JAK3 (Table^a 154), more than 1 µM; at Tyk2 (Table^a 154) it was more than 1 µM.
As for `N#Cc1ccc(NC[C@H]2CC[C@H](c3nnn4cnc5[nH]ccc5c34)CC2)cc1C(F)(F)F` [compound 105], the half-inhibitory concentration (IC50) against JAK2 (ATP 100 μM, Table^a 154) was 0.19 µM; at JAK3 (Table^a 154), more than 1 µM; at Tyk2 (Table^a 154), 0.37 µM.
For `FC(F)(F)Oc1ccc(CNC[C@H]2CC[C@H](c3nnn4cnc5[nH]ccc5c34)CC2)cc1` [compound 110], the IC50 against JAK2 (ATP 100 μM, Table^a 154) was 0.091 µM; against JAK1 (Table^a 154), 0.0056 µM.
Turning to `FC(F)(F)c1cc(CN2CCC(c3nnn4cnc5[nH]ccc5c34)CC2)ccc1Cl` [compound 155], the half-maximal inhibitory concentration (IC50) against JAK2 (ATP 100 μM, Table^a 154) amounted to 0.032 µM; on JAK1 (Table^a 154), 0.011 µM.
For the molecule `OCCN(Cc1ccccc1)C[C@H]1CC[C@H](c2nnn3cnc4[nH]ccc4c23)CC1` [compound 268, 2-({[trans-4-(7H-pyrrolo[3,2-e][1,2,3]triazolo[1,5-c]pyrimidin-1-yl)cyclohexyl]methyl}(benzyl)amino)ethanol], the 50% inhibitory concentration (IC50) was determined as 0.72 µM at JAK3, 0.0044 µM against JAK1 and 0.12 µM at Tyk2.
The matching figures for `CC1(C)CC1NC[C@H]1CC[C@H](c2nnn3cnc4[nH]ccc4c23)CC1` (stereo partly drawn) [compound 290, N-{[trans-4-(7H-pyrrolo[3,2-e][1,2,3]triazolo[1,5-c]pyrimidin-1-yl)cyclohexyl]methyl}-2,2-dimethylcyclopropanamine]: 0.5 µM, 0.0076 µM and 0.27 µM.
For `OC1(CNC[C@H]2CC[C@H](c3nnn4cnc5[nH]ccc5c34)CC2)CCCCC1` [compound 313, 1-[({[trans-4-(7H-pyrrolo[3,2-e][1,2,3]triazolo[1,5-c]pyrimidin-1-yl)cyclohexyl]methyl)amino)methyl]cyclohexanol], in that order: more than 1 µM, 0.0084 µM and 0.51 µM.
In the case of `Fc1ccc(C2(NC[C@H]3CC[C@H](c4nnn5cnc6[nH]ccc6c45)CC3)COC2)cc1` [compound 322, N-{[trans-4-(7H-pyrrolo[3,2-e][1,2,3]triazolo[1,5-c]pyrimidin-1-yl)cyclohexyl]methyl}-3-(4-fluorophenyl)oxetan-3-amine], the IC50 at JAK3 stood at 0.2 µM; against JAK1, 0.0013 µM; against Tyk2 it was 0.43 µM.
As for `Fc1ccc(C2(NC[C@H]3CC[C@H](c4nnn5cnc6[nH]ccc6c45)CC3)CC2)cc1` [compound 323, N-{[trans-4-(7H-pyrrolo[3,2-e][1,2,3]triazolo[1,5-c]pyrimidin-1-yl)cyclohexyl]methyl}-1-(4-fluorophenyl)cyclopropanamine], the half-maximal inhibitory concentration (IC50) was found to be 0.034 µM against JAK2 (ATP 100 μM), 0.83 µM at JAK3 and 0.78 µM against Tyk2.
As for `COCCN(C)C[C@H]1CC[C@H](c2nnn3cnc4[nH]ccc4c23)CC1` [compound 325, N-{[trans-4-(7H-pyrrolo[3,2-e][1,2,3]triazolo[1,5-c]pyrimidin-1-yl)cyclohexyl]methyl}-2-methoxy-N-methylethanamine], the IC50 at JAK3 was more than 1 µM; on JAK1, 0.011 µM; at Tyk2, 0.88 µM.
As to `FC1(F)CCN(C[C@H]2CC[C@H](c3nnn4cnc5[nH]ccc5c34)CC2)C1` [compound 328, 1-{trans-4-[(3,3-difluoropyrrolidin-1-yl)methyl]cyclohexyl}-7H-pyrrolo[3,2-e][1,2,3]triazolo[1,5-c]pyrimidine], the IC50 amounted to 0.53 µM against JAK3, 0.0073 µM against JAK1 and 0.9 µM at Tyk2.
As for `O=C(NCC(O)(c1ccc(F)cc1)C(F)(F)F)[C@H]1CC[C@H](c2nnn3cnc4[nH]ccc4c23)CC1` (stereo partly drawn) [compound 347, trans-4-(7H-Pyrrolo[3,2-e][1,2,3]triazolo[1,5-c]pyrimidin-1-yl)-N-[3,3,3-trifluoro-2-(4-fluorophenyl)-2-hydroxypropyl]cyclohexanecarboxamide], the IC50 is 0.65 µM against JAK3, 0.0069 µM on JAK1 and more than 1 µM at Tyk2.
In the case of `N#Cc1ccc(CNC(=O)[C@H]2CC[C@H](c3nnn4cnc5[nH]ccc5c34)CC2)cc1` [compound 350, trans-N-(4-cyanobenzyl)-4-(7H-pyrrolo[3,2-e][1,2,3]triazolo[1,5-c]pyrimidin-1-yl)cyclohexanecarboxamide], the half-inhibitory concentration (IC50) at JAK3 was more than 1 µM; at JAK1, 0.008 µM; against Tyk2, 0.54 µM.
In the case of `O=C(NCC(F)(F)F)[C@H]1CC[C@H](c2nnn3cnc4[nH]ccc4c23)CC1` [compound 354, trans-4-(7H-pyrrolo[3,2-e][1,2,3]triazolo[1,5-c]pyrimidin-1-yl)-N-(2,2,2-trifluoroethyl)cyclohexanecarboxamide], the results for the half-inhibitory concentration (IC50) against JAK3, against JAK1 and against Tyk2 were 0.69 µM, 0.0018 µM and 0.16 µM, respectively.
Regarding `O=S(=O)(C[C@H]1CC[C@H](c2nnn3cnc4[nH]ccc4c23)CC1)c1ccccc1` [compound 364, 1-{trans-4-[(phenylsulfonyl)methyl]cyclohexyl}-7H-pyrrolo[3,2-e][1,2,3]triazolo[1,5-c]pyrimidine], the IC50 at JAK2 (ATP 100 μM) turned out to be 0.011 µM; at JAK1, 0.0057 µM.
As for `O=S(=O)(C[C@H]1CC[C@H](c2nnn3cnc4[nH]ccc4c23)CC1)c1ccc(F)cc1` [compound 365, 1-(trans-4-{[(4-fluorophenyl)sulfonyl]methyl}cyclohexyl)-7H-pyrrolo[3,2-e][1,2,3]triazolo[1,5-c]pyrimidine], the IC50 against JAK3 amounted to 0.74 µM; on JAK1, 0.0054 µM; against Tyk2, 0.34 µM.
For the molecule `N#Cc1ccc(CCN2CCC(c3nnn4cnc5[nH]ccc5c34)CC2)cc1` [compound 375, 4-{2-[4-(7H-Pyrrolo[3,2-e][1,2,3]triazolo[1,5-c]pyrimidin-1-yl)piperidin-1-yl]ethyl}benzonitrile], the IC50 is more than 1 µM against JAK3, 0.047 µM on JAK1 and more than 1 µM at Tyk2.
`FC(F)(F)CN(CC1CC1)[C@H]1CC[C@H](c2nnn3cnc4[nH]ccc4c23)CC1` [compound 413, trans-N-(Cyclopropylmethyl)-4-(7H-pyrrolo[3,2-e][1,2,3]triazolo[1,5-c]pyrimidin-1-yl)-N-(2,2,2-trifluoroethyl)cyclohexanamine]: the concentration for half-maximal inhibition (IC50) against JAK3 is more than 1 µM; against JAK1, 0.02 µM; on Tyk2, 0.62 µM.
`N#CC(C#N)C[C@H]1CC[C@H](c2nnn3cnc4[nH]ccc4c23)CC1` [compound 432, 2-{[trans-4-(7H-Pyrrolo[3,2-e][1,2,3]triazolo[1,5-c]pyrimidin-1-yl)cyclohexyl]methyl}malononitrile]: the IC50 came out at 0.0088 µM at JAK2 (ATP 100 μM), 0.17 µM against JAK3 and 0.067 µM at Tyk2.
For `N#CCC[C@H]1CC[C@H](c2nnn3cnc4[nH]ccc4c23)CC1` [compound 441, 3-[trans-4-(7H-Pyrrolo[3,2-e][1,2,3]triazolo[1,5-c]pyrimidin-1-yl)cyclohexyl]propanenitrile], the results for the half-maximal inhibitory concentration (IC50) at JAK3, at JAK1 and against Tyk2 were 0.12 µM, 0.0016 µM and 0.024 µM, respectively.

Values taken from patent publication US9216999B2, “Substituted pyrrolo[2,3-h][1,6]naphthyridines and compositions thereof as JAK inhibitors” (priority 2011, dated 2015).
